Laboratory results as given in BindingDB's records for doi:10.1016/j.bmcl.2006.10.091 (Bristol Myers Squibb, 2007).
pIC50: −log10 of the molar value.

Experiment: Inhibition of MDC-induced chemotaxis in L1.2 cells expressing CCR4

CCN(CC)C(C)CCCNc1nccc(NCc2ccc(Cl)cc2Cl)n1 (stereo unspecified) [N4-(2,4-dichlorobenzyl)-N2-(4-(diethylamino)pentyl)pyrimidine-2,4-diamine]
pIC50: 5.30
